According to ChEMBL document CHEMBL4052667 (Bioorg Med Chem, 2017):
Blank lines part the entries; values can stand above or below the compound they belong to. The source made the active and inactive calls. The rule behind the calls is not given here.

Tests used:
[1] = system: MCF-10A; experiment: Antiproliferative activity against human MCF10A cells after 72 hrs by MTT assay; type: cell-based
[2] = system: U-937; experiment: Antiproliferative activity against human U937 cells after 72 hrs by MTT assay; type: functional, cell-based; details: U-937, 72 h
[3] = molecular target: Poly [ADP-ribose] polymerase 2 (Homo sapiens, UniProt Q9UGN5); experiment: Inhibition of recombinant human N-terminal GST-tagged PARP2 (2 to 583 residues) expressed in baculovirus infected Sf9 cells using biotinylated substrate after 1 hr by UV/Vis spectrophotometric analysis
[4] = molecular target: Histone deacetylase 1 (Homo sapiens, UniProt Q13547); experiment: Inhibition of HDAC1 (unknown origin) using acetylated peptide substrate preincubated for 15 mins followed by substrate addition measured after 60 mins by fluorescence analysis
[5] = Antiproliferative activity against human MCF10A cells at less than 50 uM after 72 hrs by MTT assay relative to control; type: cell-based, MCF-10A
[6] = system: HCC827; experiment: Antiproliferative activity against human HCC827 cells after 72 hrs by MTT assay; type: functional, cell-based; details: HCC827, 72 h
[7] = system: MCF7; experiment: Antiproliferative activity against human MCF7 cells after 72 hrs by MTT assay; type: functional, cell-based; details: MCF7, 72 h
[8] = system: MDA-MB-231; experiment: Antiproliferative activity against human MDA-MB-231 cells after 5 days by MTT assay; type: functional, cell-based; details: MDA-MB-231, 120 h
[9] = system: K562; experiment: Antiproliferative activity against human K562 cells after 72 hrs by MTT assay; type: functional, cell-based; details: K562, 72 h
[10] = molecular target: Poly [ADP-ribose] polymerase 1 (Homo sapiens, UniProt P09874); experiment: Inhibition of recombinant full length human N-terminal GST-tagged PARP1 expressed in baculovirus infected Sf9 cells using biotinylated substrate after 1 hr by UV/Vis spectrophotometric analysis
[11] = system: T47D; experiment: Antiproliferative activity against human T47D cells after 72 hrs by MTT assay; type: functional, cell-based
[12] = system: MDA-MB-231; experiment: Antiproliferative activity against human MDA-MB-231 cells after 72 hrs by MTT assay; type: functional, cell-based; details: MDA-MB-231, 72 h
[13] = system: HeLa; experiment: Antiproliferative activity against human HeLa cells after 72 hrs by MTT assay; type: functional, cell-based
[14] = molecular target: T1, Protein deacetylase HDAC6 (Homo sapiens, UniProt Q9UBN7); experiment: Inhibition of HDAC6 (unknown origin) using acetylated peptide substrate preincubated for 15 mins followed by substrate addition measured after 60 mins by fluorescence analysis
T1 sequence (Q9UBN7 whole entry): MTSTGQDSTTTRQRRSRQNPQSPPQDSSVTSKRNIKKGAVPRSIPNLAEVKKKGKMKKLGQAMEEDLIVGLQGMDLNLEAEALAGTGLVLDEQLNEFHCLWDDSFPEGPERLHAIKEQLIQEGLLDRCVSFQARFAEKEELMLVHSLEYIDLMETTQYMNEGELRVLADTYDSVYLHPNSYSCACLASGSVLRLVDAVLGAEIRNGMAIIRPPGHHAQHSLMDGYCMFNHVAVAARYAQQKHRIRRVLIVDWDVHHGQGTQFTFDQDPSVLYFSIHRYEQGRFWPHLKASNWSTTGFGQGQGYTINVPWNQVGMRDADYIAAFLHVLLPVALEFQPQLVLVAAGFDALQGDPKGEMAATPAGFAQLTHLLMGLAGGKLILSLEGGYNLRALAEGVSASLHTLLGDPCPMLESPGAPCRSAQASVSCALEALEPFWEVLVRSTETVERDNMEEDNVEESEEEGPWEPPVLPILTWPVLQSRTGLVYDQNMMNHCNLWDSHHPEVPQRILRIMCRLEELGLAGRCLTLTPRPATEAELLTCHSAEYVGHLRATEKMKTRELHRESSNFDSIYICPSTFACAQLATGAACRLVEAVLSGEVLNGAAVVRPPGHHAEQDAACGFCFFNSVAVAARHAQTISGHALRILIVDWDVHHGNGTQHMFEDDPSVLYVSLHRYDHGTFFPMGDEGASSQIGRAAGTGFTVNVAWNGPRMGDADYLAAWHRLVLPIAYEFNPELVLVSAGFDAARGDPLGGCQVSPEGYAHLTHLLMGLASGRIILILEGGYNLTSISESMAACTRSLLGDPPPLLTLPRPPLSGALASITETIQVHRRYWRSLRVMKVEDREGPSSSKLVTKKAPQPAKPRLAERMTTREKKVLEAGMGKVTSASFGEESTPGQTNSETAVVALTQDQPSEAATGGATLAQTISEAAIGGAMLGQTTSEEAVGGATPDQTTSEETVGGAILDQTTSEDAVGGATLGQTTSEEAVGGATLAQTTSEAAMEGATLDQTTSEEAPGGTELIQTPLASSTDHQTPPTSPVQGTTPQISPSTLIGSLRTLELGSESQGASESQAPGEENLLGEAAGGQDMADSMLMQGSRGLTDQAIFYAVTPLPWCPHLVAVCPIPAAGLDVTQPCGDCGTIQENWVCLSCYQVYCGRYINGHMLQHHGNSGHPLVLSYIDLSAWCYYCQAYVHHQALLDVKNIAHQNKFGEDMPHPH

[15] = system: MDA-MB-231; experiment: Induction of apoptosis in human MDA-MB-231 cells assessed as reduction in full length PARP level measured after 24 hrs by Western blot analysis; type: functional, cell-based
[16] = system: MDA-MB-231; experiment: Induction of apoptosis in human MDA-MB-231 cells assessed as necrotic cells at 2.5 uM after 48 hrs by Annexin V-FITC/propidium iodide staining based flow cytometry (reference value: 0.024%); type: functional
[17] = system: MDA-MB-231; experiment: Induction of apoptosis in human MDA-MB-231 cells assessed as viable cells at 10 uM after 48 hrs by Annexin V-FITC/propidium iodide staining based flow cytometry (reference value: 94.9%); type: functional; details: MDA-MB-231, 48 h, read-out: Activity
[18] = system: HCC1937; experiment: Antiproliferative activity against human HCC1937 cells after 3 days by MTT assay; type: functional, cell-based; details: HCC1937, 72 h
[19] = system: MDA-MB-231; experiment: Induction of apoptosis in human MDA-MB-231 cells assessed as early apoptotic cells at 2.5 uM after 48 hrs by Annexin V-FITC/propidium iodide staining based flow cytometry (reference value: 1.27%); type: functional
[20] = system: MDA-MB-231; experiment: Induction of apoptosis in human MDA-MB-231 cells assessed as late apoptotic cells at 5 uM after 48 hrs by Annexin V-FITC/propidium iodide staining based flow cytometry (reference value: 3.82%); type: functional
[21] = system: MDA-MB-231; experiment: Induction of apoptosis in human MDA-MB-231 cells assessed as viable cells at 5 uM after 48 hrs by Annexin V-FITC/propidium iodide staining based flow cytometry (reference value: 94.9%); type: functional; details: MDA-MB-231, 48 h, read-out: Activity
[22] = system: MDA-MB-231; experiment: Induction of apoptosis in human MDA-MB-231 cells assessed as increase in cleave caspase-7 level up to 10 uM measured after 24 hrs by Western blot analysis; type: functional, cell-based
[23] = system: MDA-MB-231; experiment: Induction of apoptosis in human MDA-MB-231 cells assessed as increase in gamma-H2AX level up to 10 uM after 24 hrs by Western blot analysis; type: functional, cell-based
[24] = species on record: Homo sapiens; experiment: Inhibition of HDAC in human MDA-MB-231 cells assessed as increase in acetylation of histone H3K9 level up to 10 uM after 24 hrs by Western blot analysis; type: cell-based
[25] = system: MDA-MB-231; experiment: Induction of apoptosis in human MDA-MB-231 cells assessed as necrotic cells at 10 uM after 48 hrs by Annexin V-FITC/propidium iodide staining based flow cytometry (reference value: 0.024%); type: functional
[26] = system: MDA-MB-231; experiment: Induction of apoptosis in human MDA-MB-231 cells assessed as increase in cleave caspase-9 level at 10 uM measured after 24 hrs by Western blot analysis; type: functional, cell-based
[27] = system: MDA-MB-231; experiment: Induction of apoptosis in human MDA-MB-231 cells after 48 hrs by Annexin V-FITC/propidium iodide staining based flow cytometry; type: functional, cell-based
[28] = system: MDA-MB-231; experiment: Induction of apoptosis in human MDA-MB-231 cells assessed as increase in cleave caspase-3 level up to 10 uM measured after 24 hrs by Western blot analysis; type: functional, cell-based
[29] = system: MDA-MB-231; experiment: Induction of apoptosis in human MDA-MB-231 cells assessed as late apoptotic cells at 10 uM after 48 hrs by Annexin V-FITC/propidium iodide staining based flow cytometry (reference value: 3.82%); type: functional
[30] = Safety index, ratio of compound IC50 to SAHA IC50 for human MCF10A cells; type: ADME, cell-based, MCF-10A; details: read-out: Ratio IC50
[31] = system: MDA-MB-231; experiment: Decrease in RAd51 protein level in human MDA-MB-231 cells up to 10 uM measured after 24 hrs by Western blot analysis; type: functional, cell-based
[32] = system: MDA-MB-231; experiment: Induction of apoptosis in human MDA-MB-231 cells assessed as increase in cleave PARP level measured after 24 hrs by Western blot analysis; type: functional, cell-based
[33] = system: MDA-MB-231; experiment: Induction of apoptosis in human MDA-MB-231 cells assessed as early apoptotic cells at 10 uM after 48 hrs by Annexin V-FITC/propidium iodide staining based flow cytometry (reference value: 1.27%); type: functional
[34] = system: MDA-MB-231; experiment: Induction of apoptosis in human MDA-MB-231 cells assessed as late apoptotic cells at 2.5 uM after 48 hrs by Annexin V-FITC/propidium iodide staining based flow cytometry (reference value: 3.82%); type: functional
[35] = system: Raji; experiment: Antiproliferative activity against human Raji cells after 3 days by MTT assay; type: functional, cell-based; details: 72 h
[36] = system: MDA-MB-231; experiment: Induction of apoptosis in human MDA-MB-231 cells assessed as increase in cleave caspase-8 level up to 10 uM measured after 24 hrs by Western blot analysis; type: functional, cell-based
[37] = system: MDA-MB-231; experiment: Decrease in BRCA1 protein level in human MDA-MB-231 cells up to 10 uM measured after 24 hrs by Western blot analysis; type: functional, cell-based
[38] = system: MDA-MB-231; experiment: Induction of apoptosis in human MDA-MB-231 cells assessed as early apoptotic cells at 5 uM after 48 hrs by Annexin V-FITC/propidium iodide staining based flow cytometry (reference value: 1.27%); type: functional
[39] = system: MDA-MB-231; experiment: Induction of apoptosis in human MDA-MB-231 cells assessed as viable cells at 2.5 uM after 48 hrs by Annexin V-FITC/propidium iodide staining based flow cytometry (reference value: 94.9%); type: functional; details: MDA-MB-231, 48 h, read-out: Activity
[40] = species on record: Homo sapiens; experiment: Inhibition of HDAC in human MDA-MB-231 cells assessed as increase in hyperacetylation of histone H4K8 level up to 10 uM after 24 hrs by Western blot analysis; type: cell-based
[41] = system: Raji; experiment: Potency index, ratio of SAHA IC50 to compound IC50 for human Raji cells; type: functional
[42] = system: MDA-MB-231; experiment: Induction of apoptosis in human MDA-MB-231 cells assessed as necrotic cells at 5 uM after 48 hrs by Annexin V-FITC/propidium iodide staining based flow cytometry (reference value: 0.024%); type: functional

Sequence of Poly [ADP-ribose] polymerase 2 (Q9UGN5 whole entry, the tested form may be a part): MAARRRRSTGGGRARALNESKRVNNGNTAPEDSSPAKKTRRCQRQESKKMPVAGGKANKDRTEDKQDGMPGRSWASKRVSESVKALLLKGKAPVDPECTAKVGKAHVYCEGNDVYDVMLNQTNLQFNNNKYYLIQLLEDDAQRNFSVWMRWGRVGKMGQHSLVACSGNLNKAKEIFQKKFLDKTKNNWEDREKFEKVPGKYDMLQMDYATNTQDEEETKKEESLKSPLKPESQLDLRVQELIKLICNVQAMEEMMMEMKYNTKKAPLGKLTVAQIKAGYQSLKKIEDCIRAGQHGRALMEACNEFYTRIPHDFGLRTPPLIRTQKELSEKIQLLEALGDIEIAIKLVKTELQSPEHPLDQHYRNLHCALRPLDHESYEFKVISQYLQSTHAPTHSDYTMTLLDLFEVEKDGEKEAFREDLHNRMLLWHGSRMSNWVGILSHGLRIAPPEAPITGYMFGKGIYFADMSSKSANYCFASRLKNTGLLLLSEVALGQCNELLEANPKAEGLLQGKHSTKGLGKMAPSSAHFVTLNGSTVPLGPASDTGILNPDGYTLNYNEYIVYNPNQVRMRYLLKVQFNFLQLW
Sequence of Poly [ADP-ribose] polymerase 1 (P09874 whole entry): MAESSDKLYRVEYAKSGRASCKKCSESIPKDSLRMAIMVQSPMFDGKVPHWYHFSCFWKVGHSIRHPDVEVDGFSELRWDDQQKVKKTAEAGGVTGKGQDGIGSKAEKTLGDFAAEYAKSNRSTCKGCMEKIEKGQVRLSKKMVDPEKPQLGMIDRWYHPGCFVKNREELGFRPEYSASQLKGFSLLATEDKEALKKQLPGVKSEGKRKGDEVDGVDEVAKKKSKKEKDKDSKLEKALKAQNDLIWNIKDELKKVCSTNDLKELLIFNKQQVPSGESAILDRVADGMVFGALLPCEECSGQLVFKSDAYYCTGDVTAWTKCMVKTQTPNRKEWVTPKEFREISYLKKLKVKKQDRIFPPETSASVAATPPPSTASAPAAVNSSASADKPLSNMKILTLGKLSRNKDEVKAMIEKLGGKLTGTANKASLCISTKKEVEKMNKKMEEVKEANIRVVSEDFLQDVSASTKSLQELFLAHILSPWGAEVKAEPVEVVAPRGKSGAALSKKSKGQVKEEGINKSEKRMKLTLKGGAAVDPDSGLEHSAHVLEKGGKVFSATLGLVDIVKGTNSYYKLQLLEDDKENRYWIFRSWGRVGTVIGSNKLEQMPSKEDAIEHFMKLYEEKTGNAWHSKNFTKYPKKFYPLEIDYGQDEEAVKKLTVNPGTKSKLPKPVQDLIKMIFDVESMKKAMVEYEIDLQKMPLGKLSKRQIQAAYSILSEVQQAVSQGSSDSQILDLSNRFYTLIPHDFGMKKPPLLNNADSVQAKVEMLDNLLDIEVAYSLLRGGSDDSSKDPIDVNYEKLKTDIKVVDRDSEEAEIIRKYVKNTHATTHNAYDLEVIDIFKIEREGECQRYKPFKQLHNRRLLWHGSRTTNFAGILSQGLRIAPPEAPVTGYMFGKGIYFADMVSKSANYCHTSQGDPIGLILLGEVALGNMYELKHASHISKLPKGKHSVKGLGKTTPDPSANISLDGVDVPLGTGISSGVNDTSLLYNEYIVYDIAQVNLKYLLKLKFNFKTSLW
Sequence of Histone deacetylase 1 (Q13547 whole entry): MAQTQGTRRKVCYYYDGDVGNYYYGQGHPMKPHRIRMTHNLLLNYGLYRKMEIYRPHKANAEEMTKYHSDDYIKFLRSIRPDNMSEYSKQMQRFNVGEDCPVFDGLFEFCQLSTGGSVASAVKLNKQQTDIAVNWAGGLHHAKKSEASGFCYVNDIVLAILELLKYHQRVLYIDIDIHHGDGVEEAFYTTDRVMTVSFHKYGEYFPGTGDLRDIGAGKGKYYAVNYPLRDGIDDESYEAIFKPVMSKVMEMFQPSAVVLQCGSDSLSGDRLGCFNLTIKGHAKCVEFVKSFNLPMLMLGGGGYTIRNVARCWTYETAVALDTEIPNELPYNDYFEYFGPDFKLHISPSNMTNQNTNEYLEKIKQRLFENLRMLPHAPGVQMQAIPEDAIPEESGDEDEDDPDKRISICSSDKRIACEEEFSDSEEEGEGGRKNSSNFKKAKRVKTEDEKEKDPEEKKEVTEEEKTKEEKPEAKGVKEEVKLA

Structure (SMILES): O=C(CCCCCCC(=O)Nc1ccccc1)NO [VORINOSTAT]
IC50 [1]: 2110 nM

IC50 [2]: 31000 nM
IC50 [3]: 49.1 nM
IC50 [4]: 912 nM
IC50 [6]: 32100 nM
IC50 [7]: 41800 nM
IC50 [8]: 35400 nM
IC50 [9]: > 50000 nM
IC50 [10]: 20.4 nM
IC50 [11]: > 50000 nM
IC50 [12]: 57800 nM
IC50 [13]: > 50000 nM
IC50 [14]: 129 nM
Structure (SMILES): O=C(Cc1ccc(CN2CCN(C(=O)c3cc(Cc4n[nH]c(=O)c5ccccc45)ccc3F)CC2)cc1)NO
inhibition at 72 h [5]: 20 to 30%
IC50 [1]: > 50000 nM

IC50 [2]: 4500 nM
IC50 [3]: 5.02 nM
IC50 [18]: 2020 nM
IC50 [4]: 27.3 nM
IC50 [6]: 1790 nM
IC50 [7]: 3550 nM
IC50 [8]: 220 nM
IC50 [9]: 5550 nM
IC50 [10]: 68.2 nM
IC50 [11]: 2140 nM
IC50 [35]: 1290 nM
IC50 [12]: 1540 nM
IC50 [13]: 5100 nM
IC50 [14]: 8.21 nM
Structure (SMILES): O=C(/C=C/c1ccc(CCNC(=O)c2cc(Cc3n[nH]c(=O)c4ccccc34)ccc2F)cc1)NO
Activity [15]: Dose-dependent effect
Activity [16]: 2.29%
viability at 10 µM [17]: 6.79%
Activity [19]: 10.4%
Activity [20]: 33.5%
viability at 5 µM [21]: 35.1%
Activity [22]: Active
Activity [23]: Active
inhibition [24]: Active
Activity [25]: 0.447%
Activity [26]: Active
Activity [27]: Dose-dependent effect
Activity [28]: Active
Activity [29]: 45.8%
selectivity ratio [30]: 4.1
Activity [31]: Active
Activity [32]: Dose-dependent effect
IC50 [1]: 8650 nM
Activity [33]: 47%
Activity [34]: 8.03%
Activity [36]: Active
Activity [37]: Active
Activity [38]: 28.6%
viability at 2.5 µM [39]: 79.2%
inhibition [40]: Active
Ratio IC50 [41]: 7
Activity [42]: 2.79%
